Measurements taken from patent publication EP1032561B1, “SUBSTITUTED OXIMES AS NEUROKININ ANTAGONISTS” (SCHERING CORPORATION, priority 1997, dated 1999).

Experiments:
[1] = biological target: NK1 receptor (Homo sapiens, UniProt P25103); experiment: neurokinin receptor binding assay, NK1
Source text: (§1) The in vitro and in vivo activity of the compounds of formula I can be determined by various procedures known in the art, such as a test for their ability to inhibit the activity of the NK1 agonist Substance P, an isolated hamster trachea NK2 assay, a test of the effect of NK1 antagonists on Substance P-induced airway microvascular leakage, measurement of NK2 activity in vivo in guinea pigs, measurement of bronchoconstriction due to NKA, and neurokinin receptor binding assay(s). Typical procedures are described in WO96/34857, published November 7, 1996. NK3 activity is determined by following a procedure similar to that described in the literature, e.g., Molecular Pharmacol., 48 (1995), p. 711-716.
(§2) % Inhibition is the difference between the percent of maximum specific binding (MSB) and 100%. The percent of MSB is defined by the following equation, wherein "dpm" is disintegrations per minute: % MSB =((dpm of unknown) - (dpm of nonspecific binding))/((dpm of total binding) - (dpm of nonspecific binding))X 100 [formula]

[2] = biological target: T1, NK2 receptor (Homo sapiens, UniProt P21452); experiment: neurokinin receptor binding assay, NK2
T1 sequence (P21452 1-398): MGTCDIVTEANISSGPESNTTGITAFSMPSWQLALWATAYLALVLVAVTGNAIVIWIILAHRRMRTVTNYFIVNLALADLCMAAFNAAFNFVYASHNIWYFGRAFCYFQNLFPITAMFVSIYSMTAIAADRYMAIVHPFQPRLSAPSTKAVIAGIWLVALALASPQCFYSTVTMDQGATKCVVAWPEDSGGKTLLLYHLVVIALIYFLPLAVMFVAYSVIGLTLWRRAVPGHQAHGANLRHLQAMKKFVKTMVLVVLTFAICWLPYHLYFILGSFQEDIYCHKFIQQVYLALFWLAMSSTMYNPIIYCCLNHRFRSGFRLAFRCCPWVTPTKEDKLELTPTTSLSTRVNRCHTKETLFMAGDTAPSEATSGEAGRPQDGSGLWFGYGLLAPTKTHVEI
Source text: as §1, §2

Chain of NK1 receptor (P25103 whole entry, species assumed): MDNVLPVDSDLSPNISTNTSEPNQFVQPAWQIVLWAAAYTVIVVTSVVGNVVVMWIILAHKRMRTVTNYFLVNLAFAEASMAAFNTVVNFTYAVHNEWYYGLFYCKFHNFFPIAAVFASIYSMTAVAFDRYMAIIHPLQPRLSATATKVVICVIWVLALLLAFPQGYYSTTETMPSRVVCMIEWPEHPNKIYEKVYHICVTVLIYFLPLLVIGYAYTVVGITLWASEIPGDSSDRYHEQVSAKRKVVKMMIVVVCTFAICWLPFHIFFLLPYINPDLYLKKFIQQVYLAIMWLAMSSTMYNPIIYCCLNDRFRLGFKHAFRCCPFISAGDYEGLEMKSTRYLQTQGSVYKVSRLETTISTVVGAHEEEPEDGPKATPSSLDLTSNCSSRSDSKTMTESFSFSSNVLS

`CON=C(CN(C)C(=O)c1cc(C(F)(F)F)cc(C(F)(F)F)c1)C(CCN1CCC(O)(c2ccccc2)CC1)c1ccc(Cl)c(Cl)c1` (centres unmarked) [Example 11] was tested, and the Ki [1] was 3.6 nM and the Ki [2] was 9.2 nM.
